The record followed here is EP4678644A1, “SUBSTITUTED DIHYDROTHIENOPYRIMIDINE COMPOUND, PREPARATION METHOD THEREFOR, AND USE THEREOF” (Shanghai Yidi Biotechnology Co., Ltd., priority 2023, dated 2024).

Assay [1] addresses PDE4D2 (Homo sapiens, UniProt Q08499). The assay can be described thus: PDE4D2 enzyme experiment (AMP-glo, cAMP substrate). It counts as biochemical. To be noted: read-out: PDE4D2 IC50 Binding. An excerpt:
Inhibition rate % ^= (1 - (RLUpositive control - RLUcompound)/(RLUpositive control - RLUnegative control)) * 100.

Assay [2] deals with T1, PDE4B2 (Homo sapiens, UniProt Q07343).
T1 construct: expressed in transfected cells; host or cells: Flp-In-293 (Flpin-293-PDE4B2 [sic])
In words: PDE4B2 cell experiment (cAMP, Eu-cAMP tracer / Ulight-anti-cAMP). It counts as cell-based. To be noted: Flpin-293-PDE4B2 cells; for IC50: Foskolin; for Cell Inhibition% @10 nM / inhibition at 0.01 µM: 10 nM; for Cell Inhibition% @100 nM / inhibition at 0.1 µM: 100 nM; for inhibition at 0.001 µM / Cell Inhibition% @1 nM: 1 nM.
Protocol: All compounds were dissolved in DMSO into 10 mM or 20 mM stock solutions. The compound to be tested was diluted with DMSO with a 3-fold gradient. […] 40 nL/well of the compound or a DMSO control was transferred to a 384-well plate by using Echo 550 instrument. […] The plate was incubated at 37°C for 30 minutes. Eu-cAMP tracer and Ulight-anti-cAMP were frozen and thawed and diluted in a lysis buffer. 10 of µl Eu-cAMP tracer was added to an experimental well, and 10 µl of Ulight-anti-cAMP was added to the experimental well. The reaction plate was centrifuged at 200 g at room temperature for 30 s and then left to stand at 25°C for 1 h, and data was then collected by Envision. Inhibition % = 100 - (Signal compound - SignalAve positive control)/(SignalAve negative control - SignalAve positive control) × 100. Graphpad 8.0 software was then used to obtain an IC50 value by calculation using Y = Bottom + (Top - Bottom)/(1 + 10^((LogIC50 - X) * HillSlope)).

Assay [3] deals with T1, PDE4B2. The assay can be described thus: PDE4B2 enzyme experiment (AMP-glo, cAMP substrate). Format: biochemical. To be noted: for inhibition at 0.01 µM: read-out: PDE4B2 Enzyme Inhibition% @10 nM; for inhibition at 0.1 µM: read-out: PDE4B2 Enzyme Inhibition% @100 nM.

T1 sequence (Q07343 1-564 isoform Q07343-2): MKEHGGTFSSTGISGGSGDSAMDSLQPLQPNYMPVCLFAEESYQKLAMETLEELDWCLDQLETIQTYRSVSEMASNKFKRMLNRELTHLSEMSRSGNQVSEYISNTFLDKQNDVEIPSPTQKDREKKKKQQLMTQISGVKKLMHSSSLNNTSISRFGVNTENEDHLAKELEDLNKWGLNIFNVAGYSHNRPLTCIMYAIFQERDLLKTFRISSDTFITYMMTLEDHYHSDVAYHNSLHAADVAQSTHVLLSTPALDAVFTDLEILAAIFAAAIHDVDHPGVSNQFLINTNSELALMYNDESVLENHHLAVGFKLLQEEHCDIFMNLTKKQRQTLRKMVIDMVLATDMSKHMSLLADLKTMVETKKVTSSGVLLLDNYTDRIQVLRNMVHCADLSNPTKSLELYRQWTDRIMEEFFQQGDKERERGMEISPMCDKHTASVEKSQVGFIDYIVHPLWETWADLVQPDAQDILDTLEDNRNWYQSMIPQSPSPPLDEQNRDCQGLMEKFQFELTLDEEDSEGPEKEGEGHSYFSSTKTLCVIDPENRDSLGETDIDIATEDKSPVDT
Sequence of PDE4D2 (Q08499 303-809 limits assumed): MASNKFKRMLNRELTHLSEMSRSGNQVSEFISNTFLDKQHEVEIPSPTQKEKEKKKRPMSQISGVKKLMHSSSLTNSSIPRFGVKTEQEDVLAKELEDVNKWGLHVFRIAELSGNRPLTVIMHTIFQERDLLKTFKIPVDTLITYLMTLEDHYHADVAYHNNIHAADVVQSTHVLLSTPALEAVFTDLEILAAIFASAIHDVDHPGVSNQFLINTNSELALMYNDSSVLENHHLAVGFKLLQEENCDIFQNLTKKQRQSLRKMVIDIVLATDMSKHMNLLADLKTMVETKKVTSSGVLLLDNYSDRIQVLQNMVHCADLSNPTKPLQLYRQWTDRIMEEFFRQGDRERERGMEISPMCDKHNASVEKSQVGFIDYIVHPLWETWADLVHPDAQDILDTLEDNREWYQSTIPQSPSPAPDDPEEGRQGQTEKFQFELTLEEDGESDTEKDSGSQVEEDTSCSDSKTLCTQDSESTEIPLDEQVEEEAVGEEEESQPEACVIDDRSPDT

A word on the IC50: it is the concentration at which inhibition is half-maximal. For `[O-][S@+]1CCc2nc(N3CCc4c(nn5cc(Cl)cnc45)C3)nc(NC3(CO)CCC3)c21` [Compound 1, (R)-2-(3-chloro-9,10-dihydropyrido[3',4':3,4]pyrazolo[1,5-a]pyrimidin-8(7H)-yl)-4-((1-(hydroxymethyl)cyclobutyl)amino)-6,7-dihydrothieno[3,2-d]pyrimidine 5-oxide], the IC50 in assay [1] turned out to be 7.72 nM.

For `[O-][S@+]1CCc2nc(N3CCc4c(nn5cc(Cl)ccc45)C3)nc(NC3(CO)CCC3)c21` [Compound 9, (R)-2-(7-Chloro-3,4-dihydropyrazolo[1,5-a:3,4-c']dipyridin-2(1H)-yl)-4-((1-(hydroxymethyl)cyclobutyl)amino)-6,7-dihydrothieno[3,2-d]pyrimidine 5-oxide], the IC50 in assay [1] turned out to be 0.224 nM.

Consider `[O-][S@+]1CCc2nc(N3CCc4cc(Cl)ccc4C3)nc(NC3(CO)CCC3)c21` [Compound 18, (R)-2-(6-chloro-3,4-dihydroisoquinolin-2(1H)-yl)-4-((1-(hydroxymethyl)cyclobutyl)amino)-6,7-dihydrothieno[3,2-d]pyrimidine 5-oxide], for which, in assay [1], the IC50 worked out at 3.21 nM.

For `C[C@H]1c2ccc(Cl)cc2CCN1c1nc2c(c(NC3(CO)CCC3)n1)[S@+]([O-])CC2` [Compound 28, (R)-2-((S)-6-chloro-1-methyl-3,4-dihydroisoquinolin-2(1H)-yl)-4-((1-(hydroxymethyl)cyclobutyl)amino)-6,7-dihydrothieno[3,2-d]pyrimidine 5-oxide], the figures for the IC50 in assay [2] and in assay [3] were 36.3 nM and 0.68 nM, respectively.

For `[O-][S+]1CCc2nc(N3Cc4ccc(Cl)cc4C3)nc(NC3(CO)CCC3)c21` (stereo not drawn) [Compound 33], in assay [2], the “Cell Inhibition% @10 nM” value stood at 9% and the “Cell Inhibition% @100 nM” value came out at 33.2%. Moreover, in assay [3], the “PDE4B2 Enzyme Inhibition% @10 nM” value is 72.33% and the “PDE4B2 Enzyme Inhibition% @100 nM” value is reported as 98.64%.

Consider `[O-][S+]1CCc2nc(N3CCc4ccc(Cl)cc4CC3)nc(NC3(CO)CCC3)c21` (stereo not drawn) [Compound 34], for which, in assay [2], the “Cell Inhibition% @10 nM” value turned out to be 14% and the “Cell Inhibition% @100 nM” value turned out to be 62%. The compound further had an IC50 in assay [3] of 1.96 nM.

Turning to `[O-][S+]1CCc2nc(N3CCc4ccsc4C3)nc(NC3(CO)CCC3)c21` (stereo not drawn) [Compound 36], in assay [2], the “Cell Inhibition% @10 nM” value was 18.10% and the “Cell Inhibition% @100 nM” value came out at 66.60%. In assay [3], the “PDE4B2 Enzyme Inhibition% @10 nM” value stood at 74.54% and the “PDE4B2 Enzyme Inhibition% @100 nM” value turned out to be 99.04%.

`[O-][S+]1CCc2nc(N3CCc4sccc4C3)nc(NC3(CO)CCC3)c21` (stereo not drawn) [Compound 37]: the 50% inhibitory concentration (IC50) in assay [2] amounted to 89.5 nM; in assay [3], 2.99 nM.

What is called inhibition is the change of the read-out against control, counted positive when it falls. Consider `Cn1cnc2c1CN(c1nc3c(c(NC4(CO)CCC4)n1)[S@+]([O-])CC3)CC2` [Compound 38, (R)-4-((1-(hydroxymethyl)cyclobutyl)amino)-2-(3-methyl-3,4,6,7-tetrahydro-5H-imidazo[4,5-c]pyridin-5-yl)-6,7-dihydrothieno[3,2-d]pyrimidine-5-oxide], for which, in assay [2], the inhibition at 0.01 µM came to 20.3% and the inhibition at 0.1 µM worked out at 38.2%. Further, in assay [3], the inhibition at 0.01 µM was 35.4% and the inhibition at 0.1 µM was 84.7%.

The compound `Cn1c(=O)c2c(c3ccc(Cl)cc31)CCN(c1nc3c(c(NC4(CO)CCC4)n1)[S@+]([O-])CC3)C2` [Compound 45, (R)-8-chloro-3-(4-((1-(hydroxymethyl)cyclobutyl)amino)-5-oxido-6,7-dihydrothieno[3,2-d]pyrimidin-2-yl)-6-methyl-2,3,4,6-tetrahydrobenzo[c][2,7]naphthyridin-5(1H)-one] had an IC50 in assay [2] of 3.99 nM. Further, in assay [3], the inhibition at 0.01 µM was 99.8% and the inhibition at 0.1 µM was 100%.

Regarding `[O-][S+]1CCc2nc(N3CCc4ccc(Br)cc4CC3)nc(NC3(CO)CCC3)c21` (stereo not drawn) [Compound 46], in assay [2], the “Cell Inhibition% @10 nM” value turned out to be 69.61% and the “Cell Inhibition% @100 nM” value is on record as 99.05%. Also, in assay [3], the “PDE4B2 Enzyme Inhibition% @10 nM” value was 98.91% and the “PDE4B2 Enzyme Inhibition% @100 nM” value is listed as 100.22%.

`COc1ccc2c(c1)CCN(c1nc3c(c(NC4(CO)CCC4)n1)[S+]([O-])CC3)CC2` (stereo not drawn) [Compound 47] registered a concentration for half-maximal inhibition (IC50) in assay [2] of 6.28 nM. For the same compound, in assay [3], the “PDE4B2 Enzyme Inhibition% @10 nM” value is reported as 98.41% and the “PDE4B2 Enzyme Inhibition% @100 nM” value was 100.06%.

Turning to `[O-][S@+]1CCc2nc(N3CCc4cc5c(cc4C3)OC(F)(F)O5)nc(NC3(CO)CCC3)c21` [Compound 48, (R)-2-(2,2-difluoro-7,8-dihydro-[1,3]dioxolo[4,5-g]isoquinolin-6(5H)-yl)-4-((1-(hydroxymethyl)cyclobutyl)amino)-6,7-dihydrothieno[3,2-d]pyrimidine 5-oxide], the inhibition at 0.01 µM in assay [2] is 25.7%; in assay [3] it was 87%. The inhibition at 0.1 µM in assay [2] is 76.2%; in assay [3], 101%.

`[O-][S@+]1CCc2nc(N3CCc4cc5ncoc5cc4C3)nc(NC3(CO)CCC3)c21` [Compound 49, (R)-2-(7,8-dihydrooxazolo[4,5-g]isoquinolin-6(5H)-yl)-4-((1-(hydroxymethyl)cyclobutyl)amino)-6,7-dihydrothieno[3,2-d]pyrimidine 5-oxide]: the half-maximal inhibitory concentration (IC50) in assay [1] came out at 4.81 nM.

In the case of `COc1cc2c(cc1[N+](=O)[O-])CCN(c1nc3c(c(NC4(CO)CCC4)n1)[S@+]([O-])CC3)C2` [Compound 50, (R)-4-((1-(hydroxymethyl)cyclobutyl)amino)-2-(7-methoxy-6-nitro-3,4-dihydroisoquinolin-2(1H)-yl)-6,7-dihydrothieno[3,2-d]pyrimidine 5-oxide], the IC50 in assay [1] amounted to 0.695 nM.

Take `[O-][S@+]1CCc2nc(N3CCc4cc(Br)sc4C3)nc(NC3(CO)CCC3)c21` [Compound 53, (R)-2-(2-bromo-4,7-dihydrothieno[2,3-c]pyridin-6(5H)-yl)-4-((1-(hydroxymethyl)cyclobutyl)amino)-6,7-dihydrothieno[3,2-d]pyrimidine 5-oxide]: the IC50 in assay [1] came to 1.22 nM.

Turning to `[O-][S+]1CCc2nc(N3CCc4sc(Br)cc4C3)nc(NC3(CO)CCC3)c21` (stereo not drawn) [Compound 55], in assay [2], the “Cell Inhibition% @10 nM” value is 52.78% and the “Cell Inhibition% @100 nM” value is given as 93.43%. Moreover, in assay [3], the “PDE4B2 Enzyme Inhibition% @10 nM” value is on record as 93.26% and the “PDE4B2 Enzyme Inhibition% @100 nM” value is reported as 99.90%.

Turning to `[O-][S@+]1CCc2nc(N3CCc4scc(Br)c4C3)nc(NC3(CO)CCC3)c21` [Compound 57, (R)-2-(3-bromo-6,7-dihydrothieno[3,2-c]pyridin-5(4H)-yl)-4-((1-(hydroxymethyl)cyclobutyl)amino)-6,7-dihydrothieno[2,2-d]pyrimidine 5-oxide], in assay [2], the inhibition at 0.001 µM came to 11.8%, the inhibition at 0.01 µM came out at 14.9% and the inhibition at 0.1 µM stood at 71.6%. Moreover, the inhibition at 0.001 µM in assay [3] (read-out: PDE4B2 Enzyme Inhibition% @1 nM) is 38.9%. In addition, in assay [3], the inhibition at 0.01 µM came out at 90.5% and the inhibition at 0.1 µM was 100%.

`Cn1nc2c(c1Cl)CN(c1nc3c(c(NC4(CO)CCC4)n1)[S+]([O-])CC3)CC2` (stereo not drawn) [Compound 58]: in assay [2], the “Cell Inhibition% @10 nM” value worked out at 15.88% and the “Cell Inhibition% @100 nM” value is 57.11%. For the same compound, in assay [3], the “PDE4B2 Enzyme Inhibition% @10 nM” value came to 68.74% and the “PDE4B2 Enzyme Inhibition% @100 nM” value worked out at 97.48%.

With `N#Cc1ccc2c(c1)CN(c1nc3c(c(NC4(CO)CCC4)n1)[S@+]([O-])CC3)C2` [Compound 60, (R)-2-(4-((1-(hydroxymethyl)cyclobutyl)amino)-5-oxido-6,7-dihydrothieno[3,2-d]pyrimidin-2-yl)isoindoline-5-carbonitrile], in assay [2], the inhibition at 0.01 µM came to 21.2% and the inhibition at 0.1 µM came to 65.9%. In assay [3], the inhibition at 0.01 µM was determined as 65.8% and the inhibition at 0.1 µM was determined as 99.3%.

Regarding `O=[N+]([O-])c1ccc2c(c1)CN(c1nc3c(c(NC4(CO)CCC4)n1)[S+]([O-])CC3)C2` (stereo not drawn) [Compound 61], in assay [2], the “Cell Inhibition% @10 nM” value is 17.7% and the “Cell Inhibition% @100 nM” value is 55.2%. In assay [3], the “PDE4B2 Enzyme Inhibition% @10 nM” value worked out at 70.90% and the “PDE4B2 Enzyme Inhibition% @100 nM” value is given as 98.20%.

Turning to `[O-][S+]1CCc2nc(N3Cc4ccc(C(F)(F)F)cc4C3)nc(NC3(CO)CCC3)c21` (stereo not drawn) [Compound 62], in assay [2], the “Cell Inhibition% @10 nM” value was 29.5% and the “Cell Inhibition% @100 nM” value is listed as 69.1%. Besides, in assay [3], the “PDE4B2 Enzyme Inhibition% @10 nM” value was 83.85% and the “PDE4B2 Enzyme Inhibition% @100 nM” value is given as 100.57%.

As to `[O-][S+]1CCc2nc(N3CCc4nc(Br)sc4C3)nc(NC3(CO)CCC3)c21` (stereo not drawn) [Compound 63], in assay [2], the “Cell Inhibition% @10 nM” value is recorded as 31.1% and the “Cell Inhibition% @100 nM” value came out at 76.6%. Further, in assay [3], the midpoint of inhibition, the IC50, lay at 4.21 nM.

Take `NC(=O)c1ccc2c(c1)CCN(c1nc3c(c(NC4(CO)CCC4)n1)[S+]([O-])CC3)C2` (stereo not drawn) [Compound 75]: in assay [2], the “Cell Inhibition% @1 nM” value is 4.93%, the “Cell Inhibition% @10 nM” value is reported as 24.88% and the “Cell Inhibition% @100 nM” value is listed as 51.36%. For the same compound, in assay [3], it took 0.81 nM to reach half-maximal inhibition (IC50).

Consider `[O-][S+]1CCc2nc(N3CCc4cnc(Cl)cc4C3)nc(NC3(CO)CCC3)c21` (stereo not drawn) [Compound 79], for which, in assay [2], the “Cell Inhibition% @1 nM” value is recorded as 1.99%, the “Cell Inhibition% @10 nM” value turned out to be 11.19% and the “Cell Inhibition% @100 nM” value is on record as 59.37%. Moreover, the IC50 in assay [3] was 9.19 nM.

Take `CN1CC=C(c2ccc3c(c2)CCN(c2nc4c(c(NC5(CO)CCC5)n2)[S@+]([O-])CC4)C3)C1` [Compound 169, (R)-4-((1-(hydroxymethyl)cyclobutyl)amino)-2-(6-(1-methyl-2,5-dihydro-1H-pyrrol-3-yl)-3,4-dihydroisoquinolin-2(1H)-yl)-6,7-dihydrothieno[3,2-d]pyrimidine 5-oxide]: in assay [2], the inhibition at 0.001 µM is 4.67%, the inhibition at 0.01 µM came to 48.6% and the inhibition at 0.1 µM came to 96.7%. Further, in assay [3], the inhibition at 0.01 µM came to 20.4% and the inhibition at 0.1 µM was 78.8%.
